Several values for one entry are separate records, joined by “and”; a condition that tells them apart may be missing. Equal values may be shown once. Read-outs that look alike come from different tables or passages of the source.
Experiments:
Format in all cases: biochemical
pertussis toxin [1] = target: T1, pertussis toxin (Bordetella pertussis, UniProt P04977); test: Inactivation of NADase activity by sulfhydryl reagents, 6 minutes or 18 hours at 0-4° (Example Eight); details: first incubation: ATP, DTT, CHAPS
T1 sequence (P04977 35-269 limits assumed): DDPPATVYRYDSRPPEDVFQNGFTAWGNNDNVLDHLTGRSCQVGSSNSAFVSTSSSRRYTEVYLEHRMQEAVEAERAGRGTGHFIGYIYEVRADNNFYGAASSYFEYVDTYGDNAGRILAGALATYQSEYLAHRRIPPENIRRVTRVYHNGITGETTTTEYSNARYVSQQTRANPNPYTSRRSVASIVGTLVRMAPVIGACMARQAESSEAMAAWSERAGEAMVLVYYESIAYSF
Experimental: (§1) Pertussis toxin was incubated at 37° C. for fifteen minutes as described in Example Six, and then a second incubation was begun by adding 10 μl buffer A with or without 12.5 mM iodoacetate, mixing the contents of the tube and lowering the temperature to 30° C. After fifteen minutes, the tubes were shifted to an ice bath for ten minutes. A third incubation was then begun by adding 10 μl buffer A containing 200 mM DTT to those tubes containing iodoacetate to scavenge the iodoacetate. To those tubes not containing iodoacetate during the second incubation, a mixture of 200 mM DTT and 12.5 mM iodoacetate in buffer A, previously incubated for an hour on ice, was added. The third incubation was continued for one hour on ice.
(§2) The contents of each tube were then assayed for NADase activity by adding 40 μl of a reaction mix consisting of buffer A containing carbon-14 labelled NAD (final concentration in the 100 μl final volume was 25 μM), and 50 mM sodium chloride. Different reaction mixtures with various additions were used, so that in all tubes the final concentration of ATP was 1 mM and CHAPS was 1 weight percent. The assay was conducted at 37° C. for sixty minutes, and the released labelled nicotinimide was isolated and counted. The iced controls were formed by incubating pertussis toxin (1 μg) on ice in 10 mM sodium phosphate (pH 7) and 50 mM sodium chloride during the first three incubations. […] The first three incubations were done under a nitrogen atmosphere using degassed conditions, and the second and third incubations were done under subdued light.
The procedure followed in Example Seven was repeated for this study, except that N-ethylmaleimide, chloroacetamide or chloroacetate were substituted for iodoacetate. After the 30° C. incubation, the tubes were either incubated for six minutes or eighteen hours at 0°-4° C. before the 10 μl of 200 mM DTT (with or without quenched reagent) was added. Those tubes receiving the DTT after six minutes were incubated for nineteen hours at 0°-4° C. prior to the NADase assay. Those receiving the DTT after eighteen hours were incubated with DTT for one hour, as in Example Seven. The tubes were then assayed for NADase activity at the same time.

pertussis toxin [2] = target: T1, pertussis toxin; test: Screen of compounds at 1 mM for stimulation of the NADase activity of the toxin (Example Three); details: for Emax at 1000 µM / Fractional Activation: compound 1 mM, relative to 1 mM ATP, toxin preincubated with 20 mM DTT and 2% CHAPS, 3 h at 37° C, average ± half range of two trials; for Emax at 1000 µM: read-out: Fractional Activation
Excerpt: The ADP-ribosylating activity of the pertussis toxin can be detected as a nicotinamide-adenine dinucleotide-glycohydrolase (NADase) activity, which can be conveniently assayed through the use of [nicotinamide-^14 C] or [nicotinamide-^3 H] NAD. NAD consists of ADP-ribose linked to nicotinimide, and thus the extent of the release of ADP-ribose from NAD is an indication of the ability of the toxin to cause ill effects. In conducting this assay of the hydrolysis of labelled NAD, ion-exchange column chromatography was employed to resolve the product from the substrate according to the method described by Moss et al., J. Biol. Chem. 258, 11879 (1983) which is incorporated herein by reference. However, several modifications to this method were employed. First, a QAE-Sephadex resin was employed, as was a [nicotinamide-^3 H] NAD. Specifically, a 2 ml QAE-Sephadex column was first washed with 10 ml 1NHCl, followed by 10 ml H2 O, 20 ml 0.5M Tris-HCl pH 7.0, and 40 ml H2 O. [^3 H] NAD was applied, and the column washed with 20 ml water to elute impurities. Purified [^3 H] NAD was eluted with 0.25M NaCl, and stored in small aliquots at -70° C. The purified [^3 H] NAD contributed 50 mM NaCl (final concentration) to the NADase assays.
Before the end of the reaction, 2 ml QAE-Sephadex columns were treated with 10 ml 0.1M imidazole-HCl pH 7.0 with 1.0M NaCl, followed by 40 ml water. The NADase reaction (in 100 μl) was terminated by adding 0.85 ml of ice-cold water, and the entire 0.95 ml was pipetted into a treated QAE column. The labelled nicotinamide was then eluted with 3 ml of water directly into a scintillation vial and counted. The absorbed labelled NAD was then eluted into radioactive waste with 10 ml 0.1M imidazole-HCl pH 7.0 with 1.0M NaCl, and the column stored partially immersed in a water bath until the next assay.
(§3) The pertussis toxin in the Examples comprised 50 μg of the toxin in a 500 μl solution of 10 mM sodium phosphate-50 mM sodium chloride-water solution having a pH of 7. The enzymatic activity was detected as the hydrolysis of nicotinamide labelled NAD and ion-exchange column chromatography to resolve the product from the substrate. Unless otherwise noted, the assay was initiated by adding 0.5 to 2.5 μg of the toxin to a reaction mixture for a final volume of 100 μl. The NADase reaction was terminated by adding 0.85 ml of ice-cold water. The entire 0.95 ml was then pipetted into a QAE-Sephadex column (chloride form) and the labelled nicotinamide eluted with 3 ml of water directly into a scintillation vial and counted. […] One unit of NADase activity is defined as 1 pmol NAD hydrolyzed per hour.
The various compounds were screened for the ability to stimulate the NADase activity of the toxin when present in a concentration of 1 mM. Before assay the toxin (1 μg per assay) was incubated at 37° C. for ten minutes with 20 mM DTT and 2 weight percent CHAPS. Assays were for three hours at 37° C., and fractional activation is defined as activity of the compound less the activity in the absence of an activator divided by the activity in the presence of 1 mM ATP less activity in the absence of the activator. The value given is the average plus one-half the range for two separate trials. In each trial, duplicates were measured. […] The results are shown in Table II, wherein P denotes phosphate.

pertussis toxin [3] = target: T1, pertussis toxin; test: Activation constants (A0.5) of polyphosphates by NADase assay; details: for fraction of the ATP effect / EC50: in the presence of a mild detergent
Experimental: In the description herein, activation constants for the substances may be expressed by a numerical value (A0.5) by using an NADase assay.
as §3

pertussis toxin [4] = target: T1, pertussis toxin; test: Inactivation of NADase activity by iodoacetate after different activator combinations (Example Seven); details: additions to first incubation only (DTT 1 mM, ATP 1 mM, CHAPS 1%); second incubation none; read-out: Percent NADase activity relative to iced control
Experimental: Pertussis toxin was incubated first at 37° C. for fifteen minutes in […] buffer A (100 mM Tris-HCl, pH 8.0 with 1 mM NaEDTA). EDTA was added to chelate divalent cations, which may promote oxidation of free --SH groups. During this incubation, DTT and ATP were present in concentrations of 1 mM each, and CHAPS was present in a concentration of 1 weight percent. Labelled iodoacetate was then added ([…], 12.5 mM), and the tube incubated on ice for twenty hours. The sample was then mixed with sodium dodecylsulfate and β-mercaptoethanol, heated at 95° C. for one minute, and electrophoresed. After electrophoresis, the gel was fixed, treated with Fluorohance (Research Products International), dried and used to expose x-ray film.
as §1, §2

[5] = FIGS. 1A and 1B, read-out: activation constants (A0.5)

How did the NADase activity (pertussis toxin [1]; 6 minutes at 0-4°) turn out when `O=C(O)CCl` [chloroacetate] was run?
The NADase activity was 86 pmol per μg per hour.

And the “percent of activity with no addition to second incubation” value (from here on “percent of activity with no addition”) (pertussis toxin [1]; 6 minutes at 0-4°)?
The value was 91%.

And the NADase activity (pertussis toxin [1]; 18 hours at 0-4°)?
Its NADase activity is 85 pmol per μg per hour.

And the “percent of activity with no addition” value (pertussis toxin [1]; 18 hours at 0-4°)?
The value was 87%.

Which Emax at 1000 µM (pertussis toxin [2]) does the source give for `Nc1ccn([C@@H]2O[C@H](COP(=O)(O)OP(=O)(O)OP(=O)(O)O)[C@@H](O)[C@H]2O)c(=O)n1` [CTP] here?
The Emax at 1000 µM was 103 ± 9%.

For `O=P(O)(O)OP(=O)(O)OP(=O)(O)O` [tripoly-P, tripolyphosphate], which “fraction of the ATP effect” value (pertussis toxin [3]; FIGS. 1A and 1B) is on record?
The value was 0.6.

What about the “Fractional Activation” value (pertussis toxin [2]) of the same compound?
Its value is 0.98 ± .14.

`Cc1ncc(COP(=O)(O)O)c(C=O)c1O` [pyridoxal-P] was tested. Which Emax at 1000 µM (pertussis toxin [2]) did it give?
Its Emax at 1000 µM is 53 ± 6%.

For `O=P(O)(O)OC(CO)CO` [2-glycerol-P], which Emax at 1000 µM (pertussis toxin [2]) is on record?
Its Emax at 1000 µM is -1 ± 3%.

For `O=P(O)(O)OP(=O)(O)OP(=O)(O)OP(=O)(O)O` [tetrapoly-P, tetrapolyphosphate], which “fraction of the ATP effect” value (pertussis toxin [3]; FIGS. 1A and 1B) is on record?
The value was 0.4.

What about the EC50 (pertussis toxin [3]; [5]) of the same compound?
Its EC50 is ≥ 170 µM.

And the “Fractional Activation” value (pertussis toxin [2])?
The value was 0.92 ± .12.

With `Nc1ncnc2c1ncn2[C@@H]1O[C@H](COP(=O)(O)O)[C@@H](O)[C@H]1O` [AMP] as the compound, how does the Emax at 1000 µM (pertussis toxin [2]) read?
The Emax at 1000 µM was 26 ± 9%.

For `O=c1[nH]cnc2c1ncn2[C@@H]1O[C@H](COP(=O)(O)OP(=O)(O)OP(=O)(O)O)[C@@H](O)[C@H]1O` [ITP], which Emax at 1000 µM (pertussis toxin [2]) is on record?
Its Emax at 1000 µM is 85 ± 1%.

For `O=c1ccn([C@@H]2O[C@H](COP(=O)(O)OP(=O)(O)OP(=O)(O)O)[C@@H](O)[C@H]2O)c(=O)[nH]1` [UTP], which EC50 (pertussis toxin [3]; [5]) is on record?
The EC50 was 15 µM.

What about the Emax at 1000 µM (pertussis toxin [2]) of the same compound?
The Emax at 1000 µM was 92 ± 3%.

With `Nc1ncnc2c1ncn2[C@@H]1O[C@H](CO)[C@@H](O)[C@H]1O` [adenosine] as the compound, how does the “Effect on the dose-response relationship of ATP or pyrophosphate” value (pertussis toxin [3]; adenosine 1 mM) read?
Its value is “failed to significantly alter”.

And the “Stimulation (activation) of pertussis toxin, in words” value (“Stimulation (activation)” for short) (pertussis toxin [2])?
Its value is “ineffective”.

What about the Emax at 1000 µM (pertussis toxin [2]) of the same compound?
The Emax at 1000 µM was 2 ± 2%.

With `NC(=O)CCl` [chloroacetamide] as the compound, how does the NADase activity (pertussis toxin [1]; 6 minutes at 0-4°) read?
Its NADase activity is 76 pmol per μg per hour.

What about the “percent of activity with no addition” value (pertussis toxin [1]; 6 minutes at 0-4°) of the same compound?
Its value is 79%.

What about the NADase activity (pertussis toxin [1]; 18 hours at 0-4°) of the same compound?
Its NADase activity is 35 pmol per μg per hour.

What about the “percent of activity with no addition” value (pertussis toxin [1]; 18 hours at 0-4°) of the same compound?
Its value is 36%.

How did the “Stimulation (activation)” value (pertussis toxin [2]) turn out when `O=P(O)(O)OC[C@H]1OC(O)[C@H](O)[C@@H](O)[C@@H]1O` (stereo partly shown) [glucose-6-P, glucose 6-phosphate] was run?
Its value is “ineffective”.

And the Emax at 1000 µM (pertussis toxin [2])?
Its Emax at 1000 µM is -3 ± 2%.

How did the “Stimulation (activation)” value (pertussis toxin [2]) turn out when `O=P(O)(O)O` [P, phosphate] was run?
The value was “ineffective”.

And the “Fractional Activation” value (pertussis toxin [2])?
The value was 0.01 ± .01.

How did the Emax at 1000 µM (pertussis toxin [2]) turn out when `NC(Cc1ccc(OP(=O)(O)O)cc1)C(=O)O` (stereo not shown) [tyrosine-P] was run?
Its Emax at 1000 µM is 2 ± 2%.

Which Emax at 1000 µM (pertussis toxin [2]) does the source give for `NC(COP(=O)(O)O)C(=O)O` (stereo not shown) [serine-P] here?
The Emax at 1000 µM was -4 ± 2%.

`O=P1([O-])OP(=O)([O-])OP(=O)([O-])O1.[Na+].[Na+].[Na+]` [trimeta-P, trimetaphosphate] was tested. Which “fraction of the ATP effect” value (pertussis toxin [3]; FIGS. 1A and 1B) did it give?
Its value is 0.3.

What about the EC50 (pertussis toxin [3]; [5]) of the same compound?
The EC50 was ≥ 260 µM.

And the “Fractional Activation” value (pertussis toxin [2])?
The value was 0.69 ± .22.

Which results are given for `Nc1ncnc2c1ncn2[C@@H]1O[C@H](COP(=O)(O)OP(=O)(O)O)[C@@H](O)[C@H]1O` [ADP]?
EC50 (pertussis toxin [3]; [5]): 6 µM; Stimulation (activation) of pertussis toxin, in words (pertussis toxin [2]): effective; Emax at 1000 µM (pertussis toxin [2]): 107 ± 6%

With `Nc1ncnc2c1ncn2[C@@H]1O[C@H](COP(=O)(O)OP(=O)(O)OP(=O)(O)O)[C@@H](O)[C@H]1O` [ATP] as the compound, how does the EC50 (pertussis toxin [3]; [5]) read?
The EC50 was 0.2 µM.

What about the EC50 (pertussis toxin [3]; read-out: activation constant) of the same compound?
The EC50 was ~0.2 µM.

What about the remaining activity at 1000 µM (pertussis toxin [4]) of the same compound?
The remaining activity at 1000 µM was 13%.

What about the “Stimulation (activation)” value (pertussis toxin [2]) of the same compound?
The value was “effective”.

What about the “NADase activity in the presence of 1 mM ATP” value (pertussis toxin [2]; two trials, without ATP 44 and 18) of the same compound?
The value was 111 units per microgram toxin and 97 units per microgram toxin.

For `CC(OP(=O)(O)O)C(N)C(=O)O` (stereo not shown) [threonine-P], which Emax at 1000 µM (pertussis toxin [2]) is on record?
The Emax at 1000 µM was 1 ± 1%.

For `O=P(O)(O)OP(=O)(O)O` [pyro-P, pyrophosphate], which “fraction of the ATP effect” value (pertussis toxin [3]; FIGS. 1A and 1B) is on record?
Its value is 0.7.

And the “Stimulation (activation)” value (pertussis toxin [2])?
Its value is “effective”.

What about the “Fractional Activation” value (pertussis toxin [2]) of the same compound?
Its value is 0.85 ± .11.

Which EC50 (pertussis toxin [3]; [5]) does the source give for `Nc1nc2c(ncn2[C@@H]2O[C@H](COP(=O)(O)OP(=O)(O)OP(=O)(O)O)[C@@H](O)[C@H]2O)c(=O)[nH]1` [GTP] here?
The EC50 was 35 µM.

And the Emax at 1000 µM (pertussis toxin [2])?
Its Emax at 1000 µM is 87 ± 1%.

From patent publication US5032398A, “Selective modification of the catalytic subunit of pertussis toxin” (priority 1986, dated 1991)
